Experiment [1] concerns F21T (DNA, G4) GGGTTAGGGTAGGGTTAGGG
In words: FRET melting. To be noted: 60 mM K+; K-cacodylate pH 7.4; 0.2 μM DNA, 1 μM compound; SD ≤ 0.2.

For experiment [2], the system named is ALT (telomerase negative human lung fibroblast). In words: SRB short-term cytotoxicity assay, ALT. It is filed as cell-based. Conditions: 96 h. On the procedure:
(§1) Short-term anti-proliferative assays were carried out by two different assays using a panel of human cancer and non-malignant human cell lines. […] The transformed human embryonic kidney cell line HEK293T (wt KRAS) was sensitive to all tested drugs, including TMPyP4, a cationic porphyrin established as a G4 ligand, as well as the anticancer drug 5-fluorouracil (5-FU).
Human cell lines, breast carcinoma (MCF7), lung carcinoma (A549), pancreatic cancer (MIA PaCa2, Panc-1), immortalised telomerase-negative human lung fibroblast (ALT) and normal human lung fibroblast (WI-38), were all purchased from American Type Cell Culture (ATCC). Cell lines were maintained in appropriate medium supplemented with 10% fetal bovine serum (Invitrogen, UK), 2 mM L-glutamine (Invitrogen, Netherlands), and other components as specified by the suppliers. All cell lines were maintained at 37°C, 5% CO2, and routinely passaged. Short-term growth inhibition was measured using the SRB assay as described previously[43] (additional details described in Supplementary Information). […]
Sulforhodamine B (SRB) short-term cytotoxicity assay
Cells were seeded at appropriate densities into the wells of 96 well plates in their corresponding medium and incubated overnight to allow the cells to attach. Subsequently cells were exposed to various concentrations of freshly made solutions of drugs and incubated for 96 h. The cells were subsequently fixed with ice-cold trichloacetic acid (TCA) (10%, w/v) for 30 min and stained with 0.4% SRB dissolved in 1% acetic acid for 15 min.
All incubations were carried out at room temperature except for TCA fixation, which was at 4 °C. […]
After electrophoretic transfer onto nitrocellulose membranes, immunoblots were blocked with 5% milk solution, and next incubated overnight at 4 °C with primary mouse monoclonal antibody reactive to KRAS/p53 (#sc-30/sc-126; Santa Cruz Biotechnology Inc., Santa Cruz, CA, USA). […] Steady-state protein levels were expressed as mean ±SEM from at least three independent experiments.

For the next experiment, the system named is HCT116 (colon). In words: MTS short-term cytotoxicity assay, HCT116. It is filed as cell-based, human. On the procedure: as §1
HCT116 human colon carcinoma cells, SW620 human colorectal adenocarcinoma and HEK293 T human embryonic kidney cells were grown in Dulbecco's modified Eagle's medium (DMEM) supplemented with 10% fetal bovine serum, and 1% antibiotic/antimycotic (Invitrogen, Grand Island, NY, USA) and maintained at 37°C in a humidified atmosphere of 5% CO2. Cells were seeded in 96 well plates at 5.000 cells/well. Twenty-four hours after cell plating, media was removed and replaced with fresh media containing test compounds and 5-FU (Sigma), a common cytotoxic agent used in colon cancer treatmen, or vehicle control (DMSO). Following 72 h of compound exposure, cell viability was evaluated using the CellTiter 96 AQueous Non-Radioactive Cell Proliferation Assay (Promega, Madison, WI, USA), using 3-(4,5-dimethylthiazol-2-yl)-5-(3-carboxymethoxyphenyl)-2-(4-sulfophenyl)-2H-tetrazolium, inner salt (MTS) as previously described. Cell viability data were expressed as mean ± SEM or mean ± SD from at least three independent experiments. IC50 and IC65 values were determined using GaphPad Prism v.5.00 (GraphPad Software). (Performed at Cell Function and Therapeutic Targeting Group, iMed.ULisboa)

The subject of experiment [3] is F21T G4 (human telomeric sequence). In words: FRET melting assay, F21T telomeric G4. The format is binding. To be noted: G4 0.2 μM, ligand 1 μM. How it is done: Two compounds 2d and 3e were selected and evaluated for their ability to stabilize the 32-mer sequence in the NHE of the human KRAS promoter (KRAS32R)[12], two G4 motifs in the 5′UTR of KRAS mRNA (UTR-1 and UTR-2)[24] and a 21-mer DNA G4 from the human telomeric sequence (F21T). The KRAS32R sequence has been described as forming two G4 structures which exist in equilibrium. One sequence folds into a G4 (Q1) with a Tm of ~55°C that is disrupted on increasing the temperature and then, the full-length 32-mer sequence folds into a new G4 (Q2, Tm of ~72°C)[13]. In our assay, the KRAS32R sequence (in the presence or absence of IQcs) folded in a single G4 structure (Tm ≈ 54°C), as shown by the single inflection for the first derivative of the FRET melting data (Sup. Inf.; Figure S4). This monophasic behaviour was also observed in the presence of TMPyP4[13].
Oligonucleotide sequences were purchased from Eurofins MWG Synthesis GmbH, Germany or STAB VIDA Genomics Lab, Caparica, Lisbon, Portugal. The labelled oligonucleotides used in the FRET assays had attached the donor fluorophore FAM (6-carboxyfluorescein) and the acceptor fluorophore TAMRA (6-carboxytetramethylrhodamine): KRAS21R: 5′-FAM-[…]-TAMRA-3′; KRAS32R: 5′-FAM-[…]-TAMRA-3′; UTR-1: 5′-FAM-GCGGCGGCGGAGG-TAMRA-3′; UTR-2: 5′-FAM-[…]-TAMRA-3; T-Loop:5′-FAM-[…]-TAMRA-3′; F21T: 5′-FAM-[…]-TAMRA-3′. Non-labelled oligonucleotides were used in FRET competition assays and in the spectroscopic studies: ds26: - d(5′-CAATCGGATCGAATT CGATCCGATTG-3′); KRAS21R: 5′-[…]-3′; HT21: 5′-[…]-3′. Each oligonucleotide was initially diluted to a storage solution at 100 μM in nuclease-free water (not DEPC-treated), purchased from Ambion Applied Biosystems UK.
The ability of indolo[3,2-c]quinolines to stabilize DNA sequences was investigated using a Fluorescence Resonance Energy Transfer (FRET) assay as reported elsewhere.

Setting [4] is: Homo sapiens, HCT-116, MTS assay, 72 h, read-out: IC50 HCT116.

Read-outs that look alike come from different tables or passages of the source.

Data on five compounds can be found in PMC5382548 (Scientific Reports, 2015).

Regarding `CCN(CC)CCCNc1ccc2c(c1)c1[nH]c3ccccc3c1c[n+]2C` [2d], the shift in melting temperature (ΔTm) (commonly the change in melting temperature against a reference sample) in experiment [1] was found to be 17.7 °C. In addition, the half-maximal inhibitory concentration (IC50) – broadly, the concentration needed to halve the response being measured – in experiment [2] came to 1.93 µM; in the experiment with HCT116 (colon) (setting [4]) it was 0.46 µM. For the same compound, the “ΔTm F21T” value in experiment [3] is 17.7 °C.

In the case of `CCN(CC)CCCNc1ccc2[nH]c3c(c[n+](C)c4ccc(NCCCN(CC)CC)cc34)c2c1.[Cl-]` [3d], in the experiment with HCT116 (colon) (setting [4]), the 50% inhibitory concentration (IC50) came to 3.46 µM.

Regarding `C[n+]1ccc(-c2c3nc(c(-c4cc[n+](C)cc4)c4ccc([nH]4)c(-c4cc[n+](C)cc4)c4ccc([nH]4)c(-c4cc[n+](C)cc4)c4nc2C=C4)C=C3)cc1` [TMPyP4, reference compound], the half-inhibitory concentration (IC50) in the experiment on HCT116 (colon) (Homo sapiens, HCT-116, 72 h, read-out: IC50 HCT116, MTS assay, 72 h) came to 12.3 µM; in the experiment with HCT116 (colon) (read-out: IC50 HCT116, MTS assay, 72 h), 12.4 µM.

In the case of `Cn1cc2c3ccccc3nc-2c2cc(Br)ccc21` [2a, 2-bromo-5-methyl-indolo[3,2-c]quinoline], the ΔTm in experiment [1] is 5.6 °C. The IC50 in experiment [2] is 4.75 µM; in the experiment with HCT116 (colon) (setting [4]), 0.14 µM. Also, the “ΔTm F21T” value in experiment [3] turned out to be 5.6 °C.

In the case of `CCN(CC)CCCNc1ccc2c(c1)[nH]c1c2c[n+](C)c2ccc(NCCCN(CC)CC)cc12.[Cl-]` [3e], in experiment [1], the ΔTm is 30.7 °C. In addition, the IC50 stood at 7.11 µM in experiment [2] and 1.8 µM in the experiment on HCT116 (colon) (setting [4]). In experiment [3], the “ΔTm F21T” value amounted to 30.7 °C.
